Calls of active or inactive are those of the source. The calls are words filed in the database; no cut-off is given here.
What was measured:
[1] = Metal chelating activity assessed as compound-Fe2+ complex formation by measuring hyperchromic shift in the presence of FeSO4 by UV-Visible spectrophotometric analysis
Mus musculus [2] = test: Neuroprotective activity in Sodium nitrite induced cognition impairement in C57BL/6 mouse model assessed as improvement in step-down latency time at 1.1 to 9.9 mg/kg, IG administered daily for 7 days; format: functional, organism-based; conditions: dose 1.1-9.9 mg/kg, time 7.0 day
HT-22 [3] = test: Neuroprotective activity against amyloid beta (1 to 42)-induced injury in mouse HT-22 cells assessed as inhibition of ROS accumulation measured after 24 hrs by DCFH-DA staining based fluorescence microscopy analysis; format: functional, cell-based; conditions: dose 2.5-10 µM
[4] = Metal chelating activity assessed as compound-Cu2+ complex formation at stoichiometric ratio of 1:1 in presence of CuCl2 by UV-Vis spectrometry
BV-2 [5] = test: Antineuroinflammatory activity in LPS-induced mouse BV-2 cells assessed as inhibition of IL-1 beta release at 0.5 uM preincubated for 30 mins followed by LPS stimulation and measured after 24 hrs relative to control; format: functional; parameters: scale not given: the % may be the effect or the level left; conditions: time 24.5 hrs
BV-2 [6] = test: Antineuroinflammatory activity in LPS-induced mouse BV-2 cells assessed as inhibition of TNF-alpha release preincubated for 30 mins followed by LPS stimulation and measured after 24 hrs; format: functional, cell-based; conditions: dose 0.5-10 µM, time 24.5 hrs
HT-22 [7] = test: Neuroprotective activity against amyloid beta (1 to 42)-induced cell injury in mouse HT-22 cells assessed as reversal of reduction in cell numbers at 2.5 to 10 uM measured after 24 hrs by MTT assay; format: functional, cell-based; conditions: dose 2.5-10 µM
BV-2 [8] = test: Antineuroinflammatory activity in LPS-induced mouse BV-2 cells assessed as inhibition of TNF-alpha release at 2.5 uM preincubated for 30 mins followed by LPS stimulation and measured after 24 hrs relative to control; format: functional; parameters: scale not given: the % may be the effect or the level left; conditions: time 24.5 hrs
PC-12 [9] = test: Neuroprotective activity against H2O2 induced rat PC12 cells assessed as increase in cell viability at 25 uM measured after 24 hrs by MTT assay relative to control; format: functional
Mus musculus [10] = test: Neuroprotective activity in Sodium nitrite induced cognition impairement in C57BL/6 mouse model assessed as increase in SOD activity at 5.0 mg/kg, IG administered daily for 7 days; format: functional, organism-based; conditions: time 7.0 day
Mus musculus [11] = test: Neuroprotective activity in Sodium nitrite induced cognition impairement in C57BL/6 mouse model assessed as reduction in number of error time at 1.1 to 9.9 mg/kg, IG administered daily for 7 days; format: functional, organism-based; conditions: dose 1.1-9.9 mg/kg, time 7.0 day
PC-12 [12] = test: Neuroprotective activity against H2O2 induced rat PC12 cells assessed as increase in cell viability at 1 uM measured after 24 hrs by MTT assay relative to control; format: functional
[13] = Metal chelating activity assessed as compound-Cu2+ complex formation by measuring bathochromic shift at 301 to 345nm in the presence of CuCl2 by UV-Visible spectrophotometric analysis
BV-2 [14] = test: Antineuroinflammatory activity in LPS-induced mouse BV-2 cells assessed as inhibition of NO release at 0.5 uM preincubated for 30 mins followed by LPS stimulation and measured after 24 hrs relative to control; format: functional; parameters: scale not given: the % may be the effect or the level left; conditions: time 24.5 hrs
Mus musculus [15] = test: Neuroprotective activity in Sodium nitrite induced cognition impairement in C57BL/6 mouse model assessed as decrease in MAD activity at 5.0 mg/kg, IG administered daily for 7 days; format: functional, organism-based; conditions: time 7.0 day
[16] = Antioxidant activity assessed as inhibition of Cu2+-induced ROS production by measuring decrease in fluorescence intensity in presence of Cu2+ and ascorbate; format: functional
BV-2 [17] = test: Antineuroinflammatory activity in LPS-induced mouse BV-2 cells assessed as inhibition of ROS production preincubated for 30 mins followed by LPS stimulation and measured after 8 hrs by DCFH-DA staining based analysis; format: functional, cell-based; conditions: dose 2.5-10 µM, time 8.5 hrs
[18] = biological target: Amyloid-beta precursor protein (Homo sapiens) (UniProt P05067); test: Inhibition of amyloid beta (1 to 42) (unknown origin) fibrillation assessed as reduction in Cu2+ induced thick fibrils at 25 uM measured after 24 hrs by TEM analysis
Amyloid-beta precursor protein (Homo sapiens), sequence (P05067 whole entry): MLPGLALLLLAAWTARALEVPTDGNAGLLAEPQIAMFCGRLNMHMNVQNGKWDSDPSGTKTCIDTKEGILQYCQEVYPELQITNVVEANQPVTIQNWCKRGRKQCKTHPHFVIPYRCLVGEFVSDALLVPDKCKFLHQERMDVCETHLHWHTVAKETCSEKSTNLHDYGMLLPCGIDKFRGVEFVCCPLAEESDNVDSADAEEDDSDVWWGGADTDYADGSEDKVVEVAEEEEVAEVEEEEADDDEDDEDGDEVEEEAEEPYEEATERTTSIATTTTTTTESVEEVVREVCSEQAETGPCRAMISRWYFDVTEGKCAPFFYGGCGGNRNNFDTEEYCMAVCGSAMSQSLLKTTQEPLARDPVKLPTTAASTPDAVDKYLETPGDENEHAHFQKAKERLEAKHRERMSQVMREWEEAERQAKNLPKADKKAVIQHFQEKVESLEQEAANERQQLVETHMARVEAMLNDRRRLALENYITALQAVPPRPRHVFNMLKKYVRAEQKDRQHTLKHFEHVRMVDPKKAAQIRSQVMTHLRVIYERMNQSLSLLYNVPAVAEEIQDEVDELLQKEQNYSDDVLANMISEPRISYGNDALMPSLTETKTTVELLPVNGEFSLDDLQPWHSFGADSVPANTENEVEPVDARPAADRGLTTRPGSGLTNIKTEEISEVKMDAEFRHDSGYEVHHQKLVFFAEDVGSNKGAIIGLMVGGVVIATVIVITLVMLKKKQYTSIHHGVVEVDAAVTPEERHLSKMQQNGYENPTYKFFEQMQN

[19] = Tmax in Balb/C mouse brain at 30 mg/kg, IG measured upto 8 hrs by LC-MS analysis; format: ADME, organism-based; conditions: po
PC-12 [20] = test: Neuroprotective activity against H2O2 induced rat PC12 cells assessed as increase in cell viability at 10 uM measured after 24 hrs by MTT assay relative to control; format: functional
[21] = Metal chelating activity assessed as compound-Al3+ complex formation by measuring bathochromic shift at 301 to 330nm in the presence of AlCl3 by UV-Visible spectrophotometric analysis
[22] = Tmax in Balb/C mouse plasma at 30 mg/kg, IG measured upto 8 hrs by LC-MS analysis; format: ADME, organism-based; conditions: po
PC-12 [23] = test: Cytotoxicity against rat PC12 cells at 25 uM measured after 24 hrs by MTT assay; format: functional, cell-based
[24] = Metal chelating activity assessed as compound-Zn2+ complex formation by measuring hyperchromic shift in the presence of ZnCl2 by UV-Visible spectrophotometric analysis
HT-22 [25] = test: Neuroprotective activity against amyloid beta (1 to 42)-induced injury in mouse HT-22 cells assessed as increase in cell viability at 10 uM incubated for 24 hrs by MTT assay relative to control; format: functional
Mus musculus [26] = test: Neuroprotective activity in Sodium nitrite induced cognition impairement in C57BL/6 mouse model assessed as decrease in MAD level at 9.9 mg/kg, IG administered daily for 7 days; format: functional; conditions: time 7 day
BV-2 [27] = test: Cytotoxicity against mouse BV-2 cells at upto 10 uM measured after 24 hrs by MTT assay; format: toxicity, cell-based; conditions: bv-2, 24 h
[28] = Half life in Balb/C mouse brain at 30 mg/kg, IG measured upto 8 hrs by LC-MS analysis; format: ADME, organism-based; conditions: po
BV-2 [29] = test: Antineuroinflammatory activity in LPS-induced mouse BV-2 cells assessed as inhibition of NO release at 2.5 uM preincubated for 30 mins followed by LPS stimulation and measured after 24 hrs relative to control; format: functional; parameters: scale not given: the % may be the effect or the level left; conditions: time 24.5 hrs

SMILES: CCCCCC1OC(=O)c2c1cc(OC)c(O)c2O (centres undefined)
- Activity [1]: Active
- Activity (Mus musculus [2]): Active
- Activity (HT-22 [3]): Dose-Dependent Effect
- Activity [4]: Active
- Activity (BV-2 [5]): 36.6%
- Activity (BV-2 [6]): Dose-Dependent Effect
- Activity (HT-22 [7]): Active
- Activity (BV-2 [8]): 40.1%
- Activity (PC-12 [9]): 83.9%
- Activity (Mus musculus [10]): inactive
- Activity (Mus musculus [11]): Active
- Activity (PC-12 [12]): 68.1%
- Activity [13]: Active
- Activity (BV-2 [14]): 31.1%
- Activity (Mus musculus [15]): inactive
- Activity [16]: Active
- Activity (BV-2 [17]): Dose-Dependent Effect
- inhibition [18]: Active
- Tmax [19]: 30 min
- Activity (PC-12 [20]): 80.7%
- Activity [21]: Active
- Tmax [22]: 15 min
- Activity (PC-12 [23]): inactive
- Activity [24]: Active
- Activity (HT-22 [25]): 89.2%
- Activity (Mus musculus [26]): 2.8 nmol/mg
- Activity (BV-2 [27]): Non-Toxic
- half-life [28]: 58.2 min
- Activity (BV-2 [29]): 47%
